System: VM46 cells
Experiment: Cell colony formation assay
Type: cell-based
Details: drug concentration producing 50% inhibition of colony formation, incubated with drugs for 72 hours at 37° C., colonies counted after 8 days
Protocol: This example provides directions for growing cells and testing compounds of the invention for their effect on the growth of the cells. All cells are purchased from DCTDC Tumor Repository, NCI, NIH.
Cell Colony Formation Assay
Five hundred cells (VM46) were plated in 60 mm Petri dishes containing 2.7 ml of medium (modified McCoy's 5a medium containing 10% bovine calf serum and 100 units/ml penicillin and […] streptomycin). The cells were incubated in a CO2 incubator at 37° C. for 5 hours for attachment to the bottom of Petri dishes. Drugs were made fresh in medium at ten times the final concentration, and then 0.3 ml of this stock solution was added to the 2.7 ml of medium in the dish. The cells were then incubated with drugs for 72 hours at 37° C. At the end of the incubation the drug-containing media were decanted, the dishes were rinsed with 4 ml of Hank's Balance Salt Solution (HBSS), 5 ml of fresh medium is added, and the dishes are returned to the incubator for colony formation. The cell colonies were counted using colony counter after incubation for 8 days for VM46 cells.
Values of ID50 (the drug concentration producing 50% inhibition of colony formation) may be determined for each tested compound.

Q: `CC[C@@]1(O)CC(=O)OCc2c1cc1n(c2=O)Cc2cc3ccccc3nc2-1` (racemic) [homo-campothecin, homo-camptothecin] was tested. Which “Values of ID 50” value did it give?
A: Its value is 4 nM.

Q: How did the “Values of ID 50” value turn out when `CCC1(OC(=O)COc2cccc(Cl)c2Cl)CC(=O)OCc2c1cc1n(c2=O)Cc2cc3ccccc3nc2-1` (centres unmarked) [Example 1158, Homocamptothecin-20-O Ester of 2,3-Dichlorophenoxy Acetic Acid] was run?
A: The value was 1.5 nM.

Q: `CCC1(OC(=O)COc2ccc(F)cc2)CC(=O)OCc2c1cc1n(c2=O)Cc2cc3ccccc3nc2-1` (centres unmarked) [Example 1160, Homo-camptothecin-20-O-ester of 4-Fluorophenoxyacetic Acid] was tested. Which “Values of ID 50” value did it give?
A: Its value is 1.5 nM.

Q: How did the “Values of ID 50” value turn out when `CCC1(OC(=O)COc2ccc(OC(F)(F)F)cc2)CC(=O)OCc2c1cc1n(c2=O)Cc2cc3ccccc3nc2-1` (centres unmarked) [Example 1164, Homo-camptothecin-20-O-ester of 4-Trifluoromethoxyphenoxyacetic Acid] was run?
A: Its value is 3.5 nM.

Q: How did the “Values of ID 50” value turn out when `CCC1(OC(=O)COc2ccccc2Cl)CC(=O)OCc2c1cc1n(c2=O)Cc2cc3ccccc3nc2-1` (centres unmarked) [Example 021229, Homocamptothecin-20-O Ester of 2-Chlorophenoxy Acetic Acid] was run?
A: Its value is 2 nM.
